Laboratory results reported in ChEMBL document CHEMBL1201862, “PubChem BioAssay data set” (2004).
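Protocol summary: plate cells (96-well), add compound at 5 concentrations, incubate 48 h, interpolate endpoints linearly. The concentration for 50% growth inhibition is given as GI50.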 Calls of active or inactive are those of the source. Rule as the data show it: active = GI50 up to about 1.1 µM and inactive = higher.

How the values were obtained:
Assay in all cases: NCI-60 cell line screen, 48 h
A498 = tested on: A498
ACHN = tested on: ACHN
CCRF-CEM = tested on: CCRF-CEM
EKVX = tested on: EKVX
HCC 2998 = tested on: HCC 2998
HCT-116 = tested on: HCT-116
HT-29 = tested on: HT-29
MOLT-4 = tested on: MOLT-4
NCI-H23 = tested on: NCI-H23
OVCAR-3 = tested on: OVCAR-3
OVCAR-4 = tested on: OVCAR-4
SF-539 = tested on: SF-539
SN12C = tested on: SN12C
SNB-75 = tested on: SNB-75
TK-10 = tested on: TK-10
UACC-62 = tested on: UACC-62
UO-31 = tested on: UO-31
MDA-MB-231 = tested on: MDA-MB-231
MDA-MB-435 = tested on: MDA-MB-435
Hs-578T = tested on: Hs-578T

| Structure (SMILES) | GI50 (A498) | GI50 (ACHN) | GI50 (CCRF-CEM) | GI50 (EKVX) | GI50 (HCC 2998) | GI50 (HCT-116) | GI50 (HT-29) | GI50 (MOLT-4) | GI50 (NCI-H23) | GI50 (OVCAR-3) | GI50 (OVCAR-4) | GI50 (SF-539) | GI50 (SN12C) | GI50 (SNB-75) | GI50 (TK-10) | GI50 (UACC-62) | GI50 (UO-31) | GI50 (MDA-MB-231) | GI50 (MDA-MB-435) | GI50 (Hs-578T) |
| --- | --- | --- | --- | --- | --- | --- | --- | --- | --- | --- | --- | --- | --- | --- | --- | --- | --- | --- | --- | --- |
| Cc1nc(C(N)=S)sc1C(=O)/C=C/c1c(O)ccc2ccccc12 | > 100 µM (inactive) | > 100 µM (inactive) | 21.6 µM (inactive) | > 100 µM (inactive) | > 100 µM (inactive) | 80.2 µM (inactive) | > 100 µM (inactive) | 21.2 µM (inactive) | > 67.5 µM (inactive) | 36.6 µM (inactive) | > 100 µM (inactive) | 70.1 µM (inactive) | > 88.1 µM (inactive) | 53.7 µM (inactive) | > 100 µM (inactive) | 29.6 µM (inactive) | 58.2 µM (inactive) | – | – | – |
| CC(C)(C)Cc1cc(O)ccc1O | > 100 µM (inactive) | 86.1 µM (inactive) | 26.5 µM (inactive) | 48.9 µM (inactive) | 51.9 µM (inactive) | 61.1 µM (inactive) | > 100 µM (inactive) | 36.4 µM (inactive) | 77.3 µM (inactive) | 39.3 µM (inactive) | > 100 µM (inactive) | 70.8 µM (inactive) | 51.3 µM (inactive) | 58.9 µM (inactive) | > 100 µM (inactive) | > 100 µM (inactive) | > 100 µM (inactive) | 42.2 µM (inactive) | 39.1 µM (inactive) | – |
| Cn1c(=O)nc2n(-c3cccc(Cl)c3)c3ccccc3nc-2c1=O | 30.5 µM (inactive) | 3.63 µM (inactive) | 19 µM (inactive) | 12 µM (inactive) | 10.7 µM (inactive) | 13.8 µM (inactive) | 4.53 µM (inactive) | 18.5 µM (inactive) | 5.9 µM (inactive) | 2.45 µM (inactive) | 11.6 µM (inactive) | 16 µM (inactive) | 12.8 µM (inactive) | 15.3 µM (inactive) | 17 µM (inactive) | 2.68 µM (inactive) | 34.9 µM (inactive) | – | – | – |
| CC1=CCS(=O)(=O)C1C(O)C1=C(C)CCCC1(C)C (configuration not stated) | 0.0395 µM (active) | > 100 µM (inactive) | 71.3 µM (inactive) | > 100 µM (inactive) | > 100 µM (inactive) | 72.3 µM (inactive) | > 100 µM (inactive) | 51.2 µM (inactive) | > 100 µM (inactive) | 99.8 µM (inactive) | 84.5 µM (inactive) | > 100 µM (inactive) | > 100 µM (inactive) | 98.4 µM (inactive) | > 100 µM (inactive) | 87.1 µM (inactive) | 38.3 µM (inactive) | > 100 µM (inactive) | 63.4 µM (inactive) | – |
| COC(=O)C1=C2SCc3cccc(c3)CSC3=C(C(=O)OC)SC(=C(S2)S1)S3 | > 100 µM (inactive) | > 100 µM (inactive) | > 100 µM (inactive) | – | > 100 µM (inactive) | > 100 µM (inactive) | – | > 100 µM (inactive) | – | > 100 µM (inactive) | > 100 µM (inactive) | – | 65.9 µM (inactive) | > 100 µM (inactive) | > 100 µM (inactive) | > 100 µM (inactive) | > 100 µM (inactive) | 24.7 µM (inactive) | > 100 µM (inactive) | – |
| Cc1ccc(C(=O)/C=C/c2ccccc2Cl)cc1 | 25.4 µM (inactive) | 15.9 µM (inactive) | 18.8 µM (inactive) | 19.2 µM (inactive) | 18.5 µM (inactive) | 11.8 µM (inactive) | 15.8 µM (inactive) | 19.6 µM (inactive) | 19 µM (inactive) | 17.3 µM (inactive) | 17.1 µM (inactive) | 21.2 µM (inactive) | 20.6 µM (inactive) | 19.1 µM (inactive) | 21.1 µM (inactive) | 14.3 µM (inactive) | 18.6 µM (inactive) | – | – | – |
| CNC(=O)N(CCCCC(NC(C)=O)C(=O)NCc1ccccc1)Cc1ccccc1 (configuration not stated) | > 100 µM (inactive) | > 100 µM (inactive) | > 100 µM (inactive) | > 100 µM (inactive) | > 100 µM (inactive) | > 100 µM (inactive) | > 100 µM (inactive) | > 100 µM (inactive) | > 100 µM (inactive) | > 100 µM (inactive) | > 100 µM (inactive) | > 100 µM (inactive) | > 100 µM (inactive) | > 100 µM (inactive) | > 100 µM (inactive) | > 100 µM (inactive) | > 100 µM (inactive) | – | – | – |
| O=S(=O)(/C=C/CS(=O)(=O)c1ccccc1)c1ccccc1 | 27.5 µM (inactive) | 53.3 µM (inactive) | 36.1 µM (inactive) | 41.6 µM (inactive) | 23.9 µM (inactive) | 19.1 µM (inactive) | 37.8 µM (inactive) | 21.2 µM (inactive) | 19.2 µM (inactive) | 26.5 µM (inactive) | 35.6 µM (inactive) | 20.3 µM (inactive) | 25.3 µM (inactive) | 36.1 µM (inactive) | 43.7 µM (inactive) | 21.5 µM (inactive) | 42.5 µM (inactive) | – | – | – |
| COc1ccc(/C=C/c2nnc(S)[nH]2)cc1 | > 100 µM (inactive) | > 100 µM (inactive) | > 100 µM (inactive) | > 100 µM (inactive) | > 100 µM (inactive) | > 100 µM (inactive) | > 100 µM (inactive) | > 100 µM (inactive) | > 100 µM (inactive) | > 100 µM (inactive) | > 100 µM (inactive) | > 100 µM (inactive) | > 100 µM (inactive) | > 100 µM (inactive) | > 100 µM (inactive) | > 100 µM (inactive) | > 100 µM (inactive) | – | – | – |
| Cc1cc2[nH]c3c(C#N)c(-c4ccccc4)c(/C=N/c4ccc(F)cc4)c(=O)n3c2cc1C | > 100 µM (inactive) | > 100 µM (inactive) | > 100 µM (inactive) | > 100 µM (inactive) | > 100 µM (inactive) | > 100 µM (inactive) | – | – | > 100 µM (inactive) | 39.4 µM (inactive) | > 100 µM (inactive) | > 100 µM (inactive) | > 100 µM (inactive) | > 100 µM (inactive) | > 100 µM (inactive) | – | > 100 µM (inactive) | > 100 µM (inactive) | 91.2 µM (inactive) | – |
| CC1CCN(C(C)C)P(=S)(Cc2ccccc2)O1 (configuration not stated) | – | > 100 µM (inactive) | – | 75.3 µM (inactive) | 83.9 µM (inactive) | 59.6 µM (inactive) | > 100 µM (inactive) | > 100 µM (inactive) | 92.9 µM (inactive) | 34.4 µM (inactive) | 84.3 µM (inactive) | > 100 µM (inactive) | – | – | 75 µM (inactive) | 16.7 µM (inactive) | > 100 µM (inactive) | > 100 µM (inactive) | > 100 µM (inactive) | – |
| COC(=O)[C@H](C)N1C(=O)N[C@@H](C(C)C)C1=O | – | > 100 µM (inactive) | > 100 µM (inactive) | > 100 µM (inactive) | > 100 µM (inactive) | > 100 µM (inactive) | > 100 µM (inactive) | > 100 µM (inactive) | > 100 µM (inactive) | > 100 µM (inactive) | > 100 µM (inactive) | > 100 µM (inactive) | > 100 µM (inactive) | 82 µM (inactive) | > 100 µM (inactive) | > 100 µM (inactive) | > 100 µM (inactive) | > 100 µM (inactive) | > 100 µM (inactive) | – |
| CC(=O)OCC1OC(n2c(=O)n(-c3ccccc3)c(=O)c3ccccc32)C(OC(C)=O)C(OC(C)=O)C1OC(C)=O (configuration not stated) | > 100 µM (inactive) | > 100 µM (inactive) | 53.7 µM (inactive) | > 100 µM (inactive) | > 100 µM (inactive) | 96.6 µM (inactive) | > 100 µM (inactive) | > 100 µM (inactive) | > 100 µM (inactive) | > 100 µM (inactive) | > 100 µM (inactive) | > 100 µM (inactive) | > 100 µM (inactive) | > 100 µM (inactive) | > 100 µM (inactive) | > 100 µM (inactive) | > 100 µM (inactive) | – | – | – |
| CSC(SC)=C1C(=O)N(c2ccccc2)N=C1C | 29.4 µM (inactive) | 27.4 µM (inactive) | 18.5 µM (inactive) | 24 µM (inactive) | 46.6 µM (inactive) | 22.9 µM (inactive) | 35.8 µM (inactive) | 21.7 µM (inactive) | – | – | 34.3 µM (inactive) | 36.7 µM (inactive) | 30.7 µM (inactive) | 21.2 µM (inactive) | 22.1 µM (inactive) | 27 µM (inactive) | – | 33.8 µM (inactive) | – | 88.1 µM (inactive) |
| Clc1ccc(/C=C/c2nc(-c3ccccc3)cn3c2nc2ccccc23)cc1Cl | > 100 µM (inactive) | 49.5 µM (inactive) | 20.1 µM (inactive) | 40.3 µM (inactive) | 43.5 µM (inactive) | 27.7 µM (inactive) | 37.3 µM (inactive) | 46.9 µM (inactive) | 31.2 µM (inactive) | 31.9 µM (inactive) | 40.9 µM (inactive) | > 100 µM (inactive) | 38.1 µM (inactive) | – | 56.6 µM (inactive) | > 100 µM (inactive) | 58.1 µM (inactive) | > 100 µM (inactive) | 35.3 µM (inactive) | – |
| COc1cc(C=O)c(-c2cc(OC)c(OC)cc2C=O)cc1OC | > 100 µM (inactive) | > 100 µM (inactive) | 30.1 µM (inactive) | > 100 µM (inactive) | > 100 µM (inactive) | 70.3 µM (inactive) | 76.2 µM (inactive) | 50.6 µM (inactive) | 52.6 µM (inactive) | > 100 µM (inactive) | > 100 µM (inactive) | > 100 µM (inactive) | > 100 µM (inactive) | > 100 µM (inactive) | > 100 µM (inactive) | > 100 µM (inactive) | 64.6 µM (inactive) | – | – | – |
